Values of other authors in US9248112B2, “Hemodialysis and peritoneal dialysis solutions comprising one or more creatine compounds” (CREARENE LTD., priority 2009, dated 2016).
Like-named read-outs stand apart in the source and are kept apart here.

What was measured:
[1] = not given; remark: listed apart in the source
[2] = target: T1, creatine transporter protein (CrT) (Homo sapiens, UniProt P48029); conditions: CrT in the plasma membrane
T1 sequence (P48029 1-635): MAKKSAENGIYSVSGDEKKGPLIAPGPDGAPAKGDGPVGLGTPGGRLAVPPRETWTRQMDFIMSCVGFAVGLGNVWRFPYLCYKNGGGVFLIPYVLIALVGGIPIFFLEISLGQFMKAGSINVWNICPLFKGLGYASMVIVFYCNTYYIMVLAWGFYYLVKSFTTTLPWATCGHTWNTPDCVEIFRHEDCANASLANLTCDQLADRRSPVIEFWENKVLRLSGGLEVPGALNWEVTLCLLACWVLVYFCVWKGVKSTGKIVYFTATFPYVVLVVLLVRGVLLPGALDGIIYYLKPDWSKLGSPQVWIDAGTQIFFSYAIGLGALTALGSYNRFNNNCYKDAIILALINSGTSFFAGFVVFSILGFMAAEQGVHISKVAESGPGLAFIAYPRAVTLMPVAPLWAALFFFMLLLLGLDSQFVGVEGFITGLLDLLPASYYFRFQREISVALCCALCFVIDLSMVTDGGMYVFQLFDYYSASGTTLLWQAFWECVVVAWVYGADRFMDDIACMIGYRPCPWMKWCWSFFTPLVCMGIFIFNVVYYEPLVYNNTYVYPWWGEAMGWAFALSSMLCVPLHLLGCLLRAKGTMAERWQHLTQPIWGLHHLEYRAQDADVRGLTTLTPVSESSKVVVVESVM

[3] = peritoneal dialysis solution, 37° C.
homocysteine [4] = system: homocysteine
homocysteine [5] = conditions: animal model
[6] = not given; remark: listed apart in the source
[7] = adults, clinical studies

Compound	stability in acidic aqueous solutions (acidic aqueous solutions, temperatures over 60° C.)	storage stability in solution (neutral pH, cooled)	decrease in muscle cramps ([1]; 12 g orally 5 minutes before hemodialysis, four week treatment) [%]	serum creatinin after treatment ([1]; after four week treatment period, 12 g orally before hemodialysis) [mg/dL]	serum creatinin before treatment ([1]; start of four week treatment period) [mg/dL]	Km [2] [µM]	concentration near the saturation limit of creatine [3]	homocystein levels (homocysteine [4]; 2 g/day, additionally vitamin B supplemented subjects)	homocystein levels (homocysteine [4]; humans, approximately 5 g Cr/day)	serum levels of homocysteine (homocysteine [5])	serum creatine concentration ([6]; after a single oral dose of 5-20 g of creatine)	time to reach maximal levels in the blood stream ([6]; ingested (oral) creatine)	safe daily intake [7]
CN(CC(=O)O)C(=N)N.O [creatine monohydrate]	some instability	can be stored for thirty days without losses	60	12.4	10.7								
CN(CC(=O)O)C(=N)N [creatine]						25 to 30	24-25 g per liter	no such effects were seen	reduction of homocystein levels	reduce serum levels	1-2 mM/l	two to four	up to 20 g daily
